Measurements taken from ChEMBL document CHEMBL4308844, “Allosteric Modulation of Class A GPCRs: Targets, Agents, and Emerging Concepts” (J Med Chem, 2018).

Experiments:
[1] = target: T1, Muscarinic acetylcholine receptor M1 (Homo sapiens, UniProt P11229); experiment: Positive allosteric modulation of M1 AchR (unknown origin)
T1 sequence (P11229 whole entry): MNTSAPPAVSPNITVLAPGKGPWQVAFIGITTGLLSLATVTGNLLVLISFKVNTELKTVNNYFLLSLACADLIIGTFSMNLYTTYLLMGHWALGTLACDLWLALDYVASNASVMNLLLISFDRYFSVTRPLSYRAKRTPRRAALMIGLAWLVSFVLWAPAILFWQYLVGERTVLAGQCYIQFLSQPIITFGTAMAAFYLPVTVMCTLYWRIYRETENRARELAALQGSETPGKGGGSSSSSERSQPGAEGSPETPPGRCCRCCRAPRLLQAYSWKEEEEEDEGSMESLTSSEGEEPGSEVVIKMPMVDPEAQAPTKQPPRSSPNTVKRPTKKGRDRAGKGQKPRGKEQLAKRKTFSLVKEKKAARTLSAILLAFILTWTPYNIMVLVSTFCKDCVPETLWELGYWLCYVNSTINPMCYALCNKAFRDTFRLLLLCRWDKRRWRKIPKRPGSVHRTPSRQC

[2] = target: T2, Muscarinic acetylcholine receptor M5 (Homo sapiens) (UniProt P08912); experiment: Positive allosteric modulation of M5 AchR (unknown origin) assessed as increase in acetylcholine-induced response relative to control
T2 sequence (whole entry): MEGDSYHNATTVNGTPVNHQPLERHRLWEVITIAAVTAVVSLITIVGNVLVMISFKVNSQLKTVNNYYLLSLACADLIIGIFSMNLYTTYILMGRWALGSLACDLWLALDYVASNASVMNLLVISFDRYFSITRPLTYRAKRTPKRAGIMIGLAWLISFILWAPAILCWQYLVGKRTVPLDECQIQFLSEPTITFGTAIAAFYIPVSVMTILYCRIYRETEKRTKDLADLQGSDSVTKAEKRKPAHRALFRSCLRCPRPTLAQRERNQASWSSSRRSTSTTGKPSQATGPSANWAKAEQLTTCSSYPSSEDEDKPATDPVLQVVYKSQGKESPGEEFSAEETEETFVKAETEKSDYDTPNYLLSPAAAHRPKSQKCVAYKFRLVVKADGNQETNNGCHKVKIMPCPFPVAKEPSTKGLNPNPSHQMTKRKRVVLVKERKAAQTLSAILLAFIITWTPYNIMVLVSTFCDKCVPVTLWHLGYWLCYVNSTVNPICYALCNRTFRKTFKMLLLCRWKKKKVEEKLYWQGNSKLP

[3] = target: Cannabinoid receptor 1 (Mus musculus) (UniProt P47746); experiment: Positive allosteric modulation of CB1R in MF1 mouse brain membranes assessed as increase in [3H]CP55940 binding after 60 mins relative to control; format: cell membranes
[4] = target: Cannabinoid receptor 1 (Mus musculus) (UniProt P47746); experiment: Positive allosteric modulation of CB1R in MF1 mouse brain membranes assessed as increase in anandamide-stimulated [35S]GTPgammaS binding after 60 mins relative to control; format: functional, cell membranes
[5] = target: Cannabinoid receptor 1 (Mus musculus) (UniProt P47746); experiment: Positive allosteric modulation of CB1R in MF1 mouse brain membranes assessed as increase in [3H]WIN55212-2 binding after 60 mins relative to control; format: cell membranes
[6] = target: T3, Muscarinic acetylcholine receptor M4 (Homo sapiens) (UniProt P08173); experiment: Positive allosteric modulation of human M4 AchR expressed in CHO cells assessed as increase in acteylcholine-induced calcium mobilization by FLIPR assay; format: functional, cell-based
T3 sequence (whole entry): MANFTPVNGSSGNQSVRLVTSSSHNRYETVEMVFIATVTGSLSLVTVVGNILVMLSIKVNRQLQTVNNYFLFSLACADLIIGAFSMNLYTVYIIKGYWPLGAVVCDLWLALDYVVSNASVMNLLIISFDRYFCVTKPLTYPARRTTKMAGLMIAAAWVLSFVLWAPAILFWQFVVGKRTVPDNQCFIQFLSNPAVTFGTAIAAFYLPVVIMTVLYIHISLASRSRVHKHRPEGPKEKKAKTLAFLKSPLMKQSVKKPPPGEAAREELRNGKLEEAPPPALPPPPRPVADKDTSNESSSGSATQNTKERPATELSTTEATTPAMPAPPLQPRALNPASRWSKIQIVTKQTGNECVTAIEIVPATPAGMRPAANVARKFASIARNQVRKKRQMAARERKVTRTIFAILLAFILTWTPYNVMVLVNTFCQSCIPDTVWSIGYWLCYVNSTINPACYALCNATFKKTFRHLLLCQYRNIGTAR

[7] = target: T4, C-X-C chemokine receptor type 3 (Homo sapiens) (UniProt P49682); experiment: Inhibition of [3H]RAMX3 binding to CXCR3 (unknown origin) relative to control; conditions: concentration not given here
T4 sequence (whole entry): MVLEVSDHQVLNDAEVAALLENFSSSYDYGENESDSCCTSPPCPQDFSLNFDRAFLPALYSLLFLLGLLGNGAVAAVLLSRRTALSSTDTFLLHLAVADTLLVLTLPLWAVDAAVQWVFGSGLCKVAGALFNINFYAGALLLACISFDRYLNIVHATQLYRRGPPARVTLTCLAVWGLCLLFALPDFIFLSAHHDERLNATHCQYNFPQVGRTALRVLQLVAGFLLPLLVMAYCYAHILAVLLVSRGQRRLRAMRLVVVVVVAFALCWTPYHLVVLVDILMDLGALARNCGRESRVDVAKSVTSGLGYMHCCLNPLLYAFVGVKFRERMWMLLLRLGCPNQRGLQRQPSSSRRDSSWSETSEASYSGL

[8] = target: T5, C-X-C chemokine receptor type 2 (Homo sapiens, UniProt P25025); experiment: Inhibition of CXCR2 (unknown origin)
T5 sequence (P25025 whole entry): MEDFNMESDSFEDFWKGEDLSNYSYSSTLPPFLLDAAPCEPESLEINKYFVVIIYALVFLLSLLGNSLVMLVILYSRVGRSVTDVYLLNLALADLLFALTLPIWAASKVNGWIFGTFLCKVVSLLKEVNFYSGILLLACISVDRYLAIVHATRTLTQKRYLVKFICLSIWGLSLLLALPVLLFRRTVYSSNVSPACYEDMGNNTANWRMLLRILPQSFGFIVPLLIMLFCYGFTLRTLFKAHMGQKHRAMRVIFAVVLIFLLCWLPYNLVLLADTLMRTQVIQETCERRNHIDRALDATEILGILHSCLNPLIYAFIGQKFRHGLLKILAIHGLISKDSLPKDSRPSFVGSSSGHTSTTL

[9] = target: T6, C-X-C chemokine receptor type 1 (Homo sapiens, UniProt P25024); experiment: Inhibition of CXCR1 (unknown origin)
T6 sequence (P25024 whole entry): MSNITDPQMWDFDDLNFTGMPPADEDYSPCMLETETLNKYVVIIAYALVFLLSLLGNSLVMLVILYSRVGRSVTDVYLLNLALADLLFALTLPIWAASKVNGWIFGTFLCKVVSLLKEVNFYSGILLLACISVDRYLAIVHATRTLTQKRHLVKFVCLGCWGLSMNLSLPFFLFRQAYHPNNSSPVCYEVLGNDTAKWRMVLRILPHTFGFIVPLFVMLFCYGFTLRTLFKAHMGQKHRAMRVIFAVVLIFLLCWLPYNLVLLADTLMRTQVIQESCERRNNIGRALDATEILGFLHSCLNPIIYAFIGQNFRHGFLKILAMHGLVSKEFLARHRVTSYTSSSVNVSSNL

[10] = target: D(2) dopamine receptor (Homo sapiens) (UniProt P14416); experiment: Negative allosteric modulation of D2R (unknown origin) assessed as decrease in [3H]NPA binding at 10 uM relative to control
[11] = target: D(2) dopamine receptor (Homo sapiens) (UniProt P14416); experiment: Negative allosteric modulation of D2R (unknown origin) assessed as decrease in [3H]NPA binding at 1 uM relative to control
[12] = target: Cannabinoid receptor 1 (Homo sapiens) (UniProt P21554); experiment: Positive allosteric modulation of human CB1R assessed as potentiation of CP55940-induced calcium mobilization at […] by cell based assay relative to control; format: functional
[13] = target: T7, Substance-K receptor (Homo sapiens) (UniProt P21452); experiment: Negative allosteric modulation of NK2 receptor (unknown origin) assessed as decrease in agonist-induced cAMP production at 10 uM by cell based FRET assay relative to control; format: functional
T7 sequence (whole entry): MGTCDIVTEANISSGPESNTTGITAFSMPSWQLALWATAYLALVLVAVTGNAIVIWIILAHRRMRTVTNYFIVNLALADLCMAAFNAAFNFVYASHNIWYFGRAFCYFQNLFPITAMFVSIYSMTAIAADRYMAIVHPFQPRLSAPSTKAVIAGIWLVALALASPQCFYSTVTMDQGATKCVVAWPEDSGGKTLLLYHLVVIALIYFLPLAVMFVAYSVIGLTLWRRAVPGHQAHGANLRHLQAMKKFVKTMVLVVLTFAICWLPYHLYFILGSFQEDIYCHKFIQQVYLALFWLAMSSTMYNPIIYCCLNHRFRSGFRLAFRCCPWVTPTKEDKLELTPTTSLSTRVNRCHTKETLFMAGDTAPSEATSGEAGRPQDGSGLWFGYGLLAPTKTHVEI

[14] = target: T8, 5-hydroxytryptamine receptor 2C (Homo sapiens) (UniProt P28335); experiment: Agonist activity at 5-HT2C receptor (unknown origin) expressed in HEK293 cells assessed as IP3 release at 10 uM relative to 5-HT maximal response
T8 sequence (whole entry): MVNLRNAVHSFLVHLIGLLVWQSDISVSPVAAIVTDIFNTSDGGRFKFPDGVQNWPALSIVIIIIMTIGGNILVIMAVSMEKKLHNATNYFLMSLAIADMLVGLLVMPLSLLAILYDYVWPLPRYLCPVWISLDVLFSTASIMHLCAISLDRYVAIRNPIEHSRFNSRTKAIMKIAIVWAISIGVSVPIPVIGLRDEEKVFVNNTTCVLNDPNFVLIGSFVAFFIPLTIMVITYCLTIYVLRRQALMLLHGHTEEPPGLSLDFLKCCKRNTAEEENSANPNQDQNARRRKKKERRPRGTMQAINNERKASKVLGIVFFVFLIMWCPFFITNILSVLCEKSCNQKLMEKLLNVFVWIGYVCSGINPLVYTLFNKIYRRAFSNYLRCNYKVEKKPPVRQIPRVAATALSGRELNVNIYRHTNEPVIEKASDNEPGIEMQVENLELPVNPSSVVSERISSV

[15] = target: T8, 5-hydroxytryptamine receptor 2C (Homo sapiens); experiment: Positive allosteric modulation of 5-HT2C receptor (unknown origin) assessed as increase in 5-HT-induced displacement of [3H]mesulergine by measuring fold reduction in 5-HT Ki at 20 uM relative to control
[16] = target: T9, Muscarinic acetylcholine receptor M4 (Rattus norvegicus, UniProt P08485); experiment: Positive allosteric modulation of rat M4 AchR
T9 sequence (P08485 whole entry): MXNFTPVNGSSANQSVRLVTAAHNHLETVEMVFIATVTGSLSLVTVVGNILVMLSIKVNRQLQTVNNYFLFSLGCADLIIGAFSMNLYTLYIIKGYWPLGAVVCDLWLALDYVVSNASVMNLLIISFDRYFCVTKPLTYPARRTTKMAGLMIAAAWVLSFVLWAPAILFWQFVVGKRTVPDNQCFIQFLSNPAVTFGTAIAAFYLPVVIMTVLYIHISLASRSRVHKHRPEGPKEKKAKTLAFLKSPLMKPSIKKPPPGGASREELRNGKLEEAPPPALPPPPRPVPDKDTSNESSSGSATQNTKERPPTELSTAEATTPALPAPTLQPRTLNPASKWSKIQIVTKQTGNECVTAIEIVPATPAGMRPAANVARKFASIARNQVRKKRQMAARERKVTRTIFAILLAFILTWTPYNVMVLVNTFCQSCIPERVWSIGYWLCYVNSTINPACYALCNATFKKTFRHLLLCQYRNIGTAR

[17] = target: T10, Muscarinic acetylcholine receptor M4 (Homo sapiens, UniProt P08173); experiment: Positive allosteric modulation of human M4 AchR
T10 sequence (P08173 whole entry): T3 sequence (whole entry)

Cannabinoid receptor 1 (Mus musculus), sequence (P47746 whole entry): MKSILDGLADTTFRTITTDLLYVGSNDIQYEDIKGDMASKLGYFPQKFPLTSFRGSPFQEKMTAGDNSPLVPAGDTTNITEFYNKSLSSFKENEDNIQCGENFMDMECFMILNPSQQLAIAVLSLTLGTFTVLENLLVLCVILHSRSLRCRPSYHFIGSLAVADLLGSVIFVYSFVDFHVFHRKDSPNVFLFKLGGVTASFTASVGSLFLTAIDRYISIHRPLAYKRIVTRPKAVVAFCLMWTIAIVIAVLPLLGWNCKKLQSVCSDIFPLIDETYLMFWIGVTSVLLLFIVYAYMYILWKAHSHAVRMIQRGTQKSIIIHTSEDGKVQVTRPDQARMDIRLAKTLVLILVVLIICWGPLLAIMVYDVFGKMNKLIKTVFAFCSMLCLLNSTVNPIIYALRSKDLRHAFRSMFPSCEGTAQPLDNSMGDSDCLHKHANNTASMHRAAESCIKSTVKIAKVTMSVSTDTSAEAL
D(2) dopamine receptor (Homo sapiens), sequence (P14416 whole entry): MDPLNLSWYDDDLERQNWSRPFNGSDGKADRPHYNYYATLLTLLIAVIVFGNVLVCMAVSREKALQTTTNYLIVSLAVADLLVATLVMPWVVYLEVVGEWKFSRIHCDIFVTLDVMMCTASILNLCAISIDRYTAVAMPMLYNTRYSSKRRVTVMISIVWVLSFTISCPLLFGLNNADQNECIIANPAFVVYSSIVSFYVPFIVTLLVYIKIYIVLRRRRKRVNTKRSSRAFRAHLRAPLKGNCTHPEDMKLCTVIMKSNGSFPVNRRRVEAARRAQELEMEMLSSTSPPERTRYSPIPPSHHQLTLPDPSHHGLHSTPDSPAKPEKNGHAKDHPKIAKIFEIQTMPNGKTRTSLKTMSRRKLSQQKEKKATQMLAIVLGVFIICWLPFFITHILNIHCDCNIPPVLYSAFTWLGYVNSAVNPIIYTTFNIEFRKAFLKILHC
Cannabinoid receptor 1 (Homo sapiens), sequence (P21554 whole entry): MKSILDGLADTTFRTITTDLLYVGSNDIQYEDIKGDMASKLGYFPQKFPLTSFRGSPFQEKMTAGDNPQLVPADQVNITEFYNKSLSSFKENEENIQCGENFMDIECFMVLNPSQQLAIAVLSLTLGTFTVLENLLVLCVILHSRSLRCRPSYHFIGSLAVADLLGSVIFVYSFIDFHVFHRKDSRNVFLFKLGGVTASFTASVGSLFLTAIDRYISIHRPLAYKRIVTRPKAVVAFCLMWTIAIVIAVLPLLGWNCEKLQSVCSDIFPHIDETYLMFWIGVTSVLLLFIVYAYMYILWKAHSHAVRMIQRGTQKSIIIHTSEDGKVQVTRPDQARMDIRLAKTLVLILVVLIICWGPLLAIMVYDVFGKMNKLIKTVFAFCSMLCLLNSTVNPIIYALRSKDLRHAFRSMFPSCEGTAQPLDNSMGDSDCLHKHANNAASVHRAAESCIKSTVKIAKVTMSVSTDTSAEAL

Cc1cc(NC(=O)CS(=O)(=O)c2cn(Cc3ccc(-c4cnn(C)c4)nc3)c3cc(F)cc(F)c23)no1
EC50 [1]: 310 nM

COc1ccc(Cn2cc(C(=O)N[C@H]3CCCC[C@@H]3O)c3ncccc32)cc1
EC50 [1]: 1800 nM

CCN(Cc1ccccc1C(F)(F)F)C(=O)C1CCN(S(=O)(=O)c2ccc3[nH]ncc3c2)CC1
fold change (FC) [2]: 9.3

Cc1ccc2c(C(C[N+](=O)[O-])c3cccs3)c(-c3ccccc3)[nH]c2c1 (stereo not given)
Emax [3]: 207% | Activity [4]: 40% | Emax [5]: 225%

COc1nc2sc(C(=O)NC3CC3)c(N)c2c(C)c1Cl
Kb [6]: 200 nM

CCOc1ccc(-n2c(C(C)N(CC3CCN(Cc4ccc(C5(C(F)(F)F)N=N5)cc4)CC3)C(=O)Cc3ccc(F)c(C(F)(F)F)c3)nc3ncccc3c2=O)cc1 (stereo not given)
inhibition [7]: 80%

C[C@@H](C(=O)NS(C)(=O)=O)c1ccc(OS(=O)(=O)C(F)(F)F)cc1
IC50 [8]: 0.1 nM | IC50 [9]: 0.1 nM

CC1(C)S[C@@H]2CC[C@]3(CCCN3C(=O)[C@@H]3CCCN3)C(=O)N2[C@H]1C(N)=O
fold change (FC) [10]: 2.8 | fold change (FC) [11]: 2.7

Cc1ccc([C@H]2CC3CCC([C@H]2c2cc(-c4ccc(Cl)cc4)no2)N3C)cc1 (stereo not given in full)
Emax [12]: 36%

N#CCN(Cc1ccccc1)Cc1ccc2ccccc2c1
inhibition [13]: 30%

CC1(C)S[C@@H]2CC[C@]3(CCCN3C(=O)[C@@H]3CCCN3)C(=O)N2[C@@H]1C(N)=O
fold change (FC) [10]: 2.8 | fold change (FC) [11]: 2.7

CCCCCCCCCCC[C@@H]1CCN[C@H](C(=O)N[C@@H]([C@H]2O[C@H](SC)[C@H](O)[C@@H](O)[C@H]2O)[C@H](C)Cl)C1
Emax [14]: < 71% | fold change (FC) [15]: 25

Cc1cc(OCc2ccncc2)nc2sc(C(=O)NCc3cccc(F)c3F)c(N)c12
EC50 [16]: 2400 nM | EC50 [17]: 95 nM
